{
  "source": "patent US6679922B1",
  "about": "“Pesticide protective articles” (priority 1998, dated 2004)",
  "key": {"[1]": {"experiment": "Pesticide reduction at various pesticide/chlorine ratios", "details": "Pesticide/Chlorine Ratio 1:4", "from_the_text": "In certain aspects, the concentration of the pesticide (e.g., methomyl) that was exposed to the fabric was proportional to the percent reduction of the pesticide. Without being bound by a particular theory, it is believed that the pesticide/halamine ratio is more critical to reduction than the actual contact time of the pesticide with the fabric. A pesticide to halamine ratio of about 10:1 to about 1:10 is suitable for the present methods, preferably, a ratio of about 5:1 to about 1:5 is used and, more preferably, a ratio of about […] is used."}, "[2]": {"details": "cited from earlier work"}, "male rats": {"test_system": "male rats", "details": "cited from earlier work"}, "[3]": {"details": "chlorine/methomyl ratio of 10 to 1; cited from earlier work"}, "[4]": {"experiment": "Detoxification of pesticides on cotton/polyester fabrics treated with DMDMH and chlorine bleach, percentage reduction by GC", "details": "6% DMDMH, 5 min contact", "procedure": "Polyester/cotton fabrics were washed in a domestic washing machine at 50° C. prior to the actual treatment of the functional compounds.\nThe grafting of hydantoin ring onto the cotton/polyester fabrics was carried out using a wet finishing process. The weighed fabrics were submerged into an aqueous 6% (w/w) DMDMH solution for 5 min. and then wringed through a padder to secure a wet pickup of 70-100% through a 2 dip-2 nip cycle. These wet fabrics were then oven-dried at 85° C. for 5 min. and cured at 150° C. for 5 min. Following this, the fabrics were washed in water at 50° C. for 30 min. to remove any excess chemicals on the surface of the fabrics.\nAfter the wet finishing process, the treated fabrics were bleached with solutions containing 0.01% and 0.1% (w/v) active chlorine content. The treated fabrics were submerged into aqueous bleach solution at one of the specified concentrations at 25° C. for 15 min. Then, the fabrics were air dried and stored at standard condition (25° C., 65% relative humidity). The chemically finished fabrics were then cut into 3×3 inches square swatches for exposure to pesticides in the subsequent testing.\nMethomyl and aldicarb were dissolved in methanol at three different concentrations: 250, 500 and 1000 ppm. One mL of one of these pesticide solutions was directly loaded onto a fabric swatch. A contact time of 5 min. was allowed before the exposed fabric was extracted in organic solvent for detoxification assessment and degradation analysis. Fabrics that were not treated with DMDMH and bleach were also used as control samples.\nThe extraction of the exposed swatches was done by soaking a swatch into an initial volume of 50 mL ethyl acetate for 15 min. with vigorous agitation. The extraction was repeated with another 50 mL of ethyl acetate; the combined 100 mL of the extracted solvent was reduced to 2 mL in volume by rotor-evaporation under partial vacuum at 40° C. To this 2-mL sample, 1 μL of 2-ethyl-5-methyl pyridine was added as an internal standard for quantitation during the chromatographic analysis. After which, 1 μL of the extracted sample was injected into a gas chromatograph.\nGas chromatography was performed on a Hewlett Packard 5890 series II GC, equipped with a nitrogen-phosphorus detector (NPD), using a 15 m×0.25 mm I.D. DB-1 column, 0.25 μm film (J&W Co.). The temperature program was initially set at 100° C. for 3 min., raised at a rate of 7° C./min. to 250° C. and held for 5 min. The injector and detector were set at 250° C. and 280° C. respectively. Helium was used as the carrier gas at a flow rate of 0.84 mL/min; hydrogen flow rate was 2.98 mL/min; nitrogen flow rate was 29.16 mL/min. A split injection was used at a split ratio of 25:1. The responses of the resulting peak areas and relative peak areas were integrated and recorded using a HP 3396 II integrator. For each sample, at least three or more repetitions at each condition were carried out.\nUsing the materials and methods sets forth above, three different concentrations of methomyl were detoxified by halamine structures on the fabrics. Relative peak area response factors (peak area response of pesticide divided by peak area response of internal standard) of the control fabrics were used to determine the original amount of pesticide on the fabrics at 0% reduction. […] After this difference was divided by the original amount, it was expressed as the percentage reduction of pesticide at those various concentrations."}},
  "note": "Values joined by “and” are separate entries in the source; they are usually repeats but may differ in a detail not shown here. Identical values can stand only once.",
  "data": [
    {"smiles": "CNC(=O)Oc1cccc2ccccc12", "note": "[Carbaryl]", "values": [
      {"measurement": "Pesticide Reduction (%)", "setting": "[1]", "value": 8.02, "unit": "%"}
    ]},
    {"smiles": "CNC(=O)Oc1cccc2c1OC(C)(C)C2", "note": "[Carbofuran]", "values": [
      {"measurement": "Pesticide Reduction (%)", "setting": "[1]", "value": 13.82, "unit": "%"}
    ]},
    {"smiles": "CNC(=O)ON=C(C)SC", "note": "[Methomyl, S-methyl N-(methyl carbamoyloxy) thioacetimidatel]", "values": [
      {"measurement": "Pesticide Reduction (%)", "setting": "[1]", "value": 79.52, "unit": "%"},
      {"measurement": "Vapor Pressure mm Hg (25-30° C.)", "setting": "[2]", "value": "5 × 10^−5 mm Hg"},
      {"measurement": "Toxicity, mg/kg (LD50, male rats)", "setting": "male rats", "value": 21, "unit": "mg/kg"},
      {"measurement": "disappearance in aqueous solution", "setting": "[3]", "value": "disappear rapidly"},
      {"measurement": "percentage reduction of pesticide", "setting": "[4]; 250 ppm pesticide, 0.01% active chlorine treatment", "value": "9.35% and 9.4%"},
      {"measurement": "percentage reduction of pesticide", "setting": "[4]; 250 ppm pesticide, 0.1% active chlorine treatment", "value": 19.9, "unit": "%"},
      {"measurement": "percentage reduction of pesticide", "setting": "[4]; 500 ppm pesticide, 0.1% active chlorine treatment", "value": 18.6, "unit": "%"},
      {"measurement": "percentage reduction of pesticide", "setting": "[4]; 1000 ppm pesticide, 0.01% active chlorine treatment", "value": "4.43% and 4.4%"},
      {"measurement": "percentage reduction of pesticide", "setting": "[4]; 1000 ppm pesticide, 0.1% active chlorine treatment", "value": "11.63% and 11.6%"}
    ]}
  ]
}
